Laboratory results from US20250295607A1, “OPHTHALMIC COMPOSITIONS FOR TREATMENT OF OCULAR SURFACE DAMAGE AND SYMPTOMS OF DRYNESS” (Novaliq GmbH, priority 2018, published 2025).

Key:
[1] = test system: subjects with Dry Eye Disease; experiment: Phase 2 multi-center, randomized, double-masked, saline-controlled clinical study (NCT03333057), signs and symptoms overall; type: in vivo, human
Description: A Phase 2, Multi-Center, Randomized, Double-Masked, Saline-Controlled Study to Evaluate the Effect of 1-Perfluorohexyloctane (NOV03) at two different dosing regimens on signs and symptoms of Dry Eye Disease (DED) was conducted. The study was performed at 11 investigational cites in the United States. The study was reviewed and approved by the respective ethics committees and registered at www.clinicaltrials.gov (NCT03333057).
The primary objective for this study is to evaluate the efficacy, safety, and tolerability of an ophthalmic composition essentially consisting of 1-perfluorohexyloctane (NOV03) at two different dosing regimens (QID, BID) compared to saline solution in subjects with Dry Eye Disease. The secondary objectives are to compare the effect of an ophthalmic composition essentially consisting of 1-perfluorohexyloctane (NOV03) and saline solution at two different dosing regimens on signs and symptoms of Dry Eye Disease and to evaluate the pharmacokinetics after 57 days dosing.
Subjects must: • a. Be at least 18 years of age. • b. Provide written informed consent. • c. Have a subject reported history of Dry Eye Disease in both eyes for at least 6 months prior to Visit 0. • d. […] Have Meibomian Gland Dysfunction (MGD) defined as MGD score≥3 (secretion of 5 central glands on lower eyelid will be evaluated, each will be scored from 0-3; 0=normal, 1=thick/yellow, whitish, particulate 2=paste; 3=none/occluded; total score will range from 0-15) at Visit 0 and Visit 1. • h. […]
Screening (Visit 0); Within 14 days before Visit 1 Subjects will be required to sign an Informed Consent before completing any study related procedure. At the screening visit, vital signs will be assessed and the subject will give blood for safety laboratory tests. […]
Baseline Visit Day 1 (Visit 1): On Day 1 (Visit 1), eligible subjects will be evaluated for baseline signs and symptoms of dry eye disease. […]
Visits 2-4; Subjects will return to the clinic on Day 15±1 (Visit 2), 29±2 (Visit 3), and 57±2 (Visit 4) to be evaluated for signs and symptoms of dry eye disease. […]

[2] = test system: cornea of subjects with Dry Eye Disease; experiment: Corneal fluorescein staining, NEI grading scale (ocular surface damage); type: in vivo, human
Text: A Wratten #12 yellow filter will be used to enhance the ability to grade fluorescein staining. The staining will be graded with the NEI (National Eye Institute) Grading
Scale. Only the staining of the cornea will be graded. Digital images of fluorescein staining may be taken for digital analysis.
Based on the NEI/Industry Workshop Scale, the grade of the ocular surface damage for each eye is scored for each of the five regions of the cornea based on measuring fluorescein uptake.
Grade 0 will be specified when no fluorescein staining is present. Grades 1, 2 and 3 define an increasing density and degree of observed fluorescein staining, The maximum total score for each eye is 15.

Density = type: physicochemical
[3] = test system: subjects with Dry Eye Disease; experiment: Visual Analog Scale (VAS) Eye Dryness Score questionnaire; type: in vivo, human; conditions: QID
Description: An Eye Dryness Score was determined based on a 10-item questionnaire provided to subjects, where subjects were asked to rate their ocular symptoms (both eyes simultaneously) due to ocular dryness by placing a vertical mark on a horizontal line scale to indicate the level of discomfort (0% corresponds to “no dryness” and 100% corresponds to “maximal dryness”). Subjects are asked about the severity of dry eye symptoms, namely the symptoms of dryness representing the first 8 questions of the VAS questionnaire corresponding to: dryness (corresponding to the first question in the VAS questionnaire, and also referred to in the text and in the graphs as “severity of dryness”; with the terms “dryness” and “severity of dryness” being used interchangeably herein as a dry eye symptom designation, sticky feeling, burning/stinging, foreign body sensation, itching, blurred vision, sensitivity to light, and pain.
Subjects are also asked about their awareness of their dry eye symptoms and frequency of their dry eye symptoms, namely questions 9-10 of the VAS questionnaire. The rating for these questions is indicated by the subject by placing a vertical mark on a horizontal line scale to indicate the percentage of time of awareness or frequency, with 0% corresponding to ‘never’ and 100% corresponding to ‘all of the time’.

[4] = test system: subjects with Dry Eye Disease; experiment: Ocular Surface Disease Index (OSDI) questionnaire; type: in vivo, human
Text: The Ocular Surface Disease Index (OSDI©)) is perhaps the most frequently used survey instrument for the assessment of ocular surface disease severity in dry eye research. The OSDIC was created by the Outcomes Research Group at Allergan Inc in order to quickly assess the symptoms of ocular irritation in dry eye disease and how they affect functioning related to vision. This 12-item questionnaire assesses dry eye symptoms and the effects it has on vision-related function in the past week of the patient's life. The questionnaire has 3 subscales: ocular symptoms, vision-related function, and environmental triggers. Patients rate their responses on a 0 to 4 scale with 0 corresponding to “none of the time” and 4 corresponding to “all of the time.” A final score is calculated which ranges from 0 to 100.
The questions assess the following: dry eye symptoms experienced by the patient within past week: sensitivity to light, gritty sensation, pain or sore eyes, blurriness, and poor vision; vision-related function, in terms of problems in the past week with regards to: reading, driving at night, working on a computer or bank machine, watching television; and in terms of environmental factors or triggers i.e. discomfort experienced in the past week during: windy conditions, places with low humidity, and areas with air condition.
Subtotals are obtained for all the questions, as well as the total number of questions answered. The OSDI index is assessed based on a scale of 0 to 100, with higher scores representing a greater disability. The OSDI index is calculated from the sum of the scores multiplied by a factor of 25, over the total number of questions answered. Higher scores represent a greater degree/severity and impact of dry eye disease.

[5] = QID, after 2 weeks of treatment
[6] = QID, significant also at 4 weeks, 8 weeks

## CCCCCCCCC(F)(F)C(F)(F)C(F)(F)C(F)(F)C(F)(F)C(F)(F)F [NOV03, 1-perfluorohexyloctane]
[1]; 4 times daily, single drop of 10-12 μl, highly symptomatic DED population with significant MGD involvement
  signs and symptoms of dry eye disease: relevant and statistically significant improvements
[1]; QID, OSDI between 38 and 72, TBUT between 2.1 and 3.9 seconds or MGD score between 4.0 and 11.2, and/or total corneal fluorescein staining between 4.8 and 9.2
  benefit in patient population by baseline characteristics: beneficial
[1]; QID, TBUT equal or lower than 3, OSDI higher than 57, total corneal fluorescein staining between 5 and 9, MGD score equal or higher than 7, Schirmer I Test greater or equal than 10 mm
  benefit in patients meeting one or more baseline criteria: especially benefitted
[2]; QID vs saline
  reduction of ocular surface damage, superior corneal region: did not show such clear improvement
[2]; QID vs saline, 2, 4, 8 weeks
  reduction of ocular surface damage, central corneal region: clear improvements
  reduction of ocular surface damage, inferior corneal region: clear improvements
  reduction of ocular surface damage, nasal corneal region: clear improvements
  reduction of ocular surface damage, temporal corneal region: clear improvements
[2]; [5]
  patients with improvement of ≥1 grade in central corneal staining: 39%
  patients with improvement of ≥3 grades in total corneal staining: 32%
[2]; QID, after 8 weeks
  patients with improvement of ≥1 grade in central corneal staining: 50%
  patients with improvement of ≥3 grades in total corneal staining: 42%
[2]; QID, at 8 weeks, vs saline
  total corneal fluorescein staining (primary efficacy endpoint), reduction of ocular surface damage of the total corneal region: met its prespecified primary efficacy endpoint
[2]; [6]
  start of treatment effect relating to the signs: 2 weeks
Density
  density: 1.35 g/mL
  density (d): 1.35 g/mL
[3]; at the 4 week timepoint, higher variability
  VAS pain: did not improve
[3]; over the placebo group
  VAS awareness of dryness: highly statistical significant improvement
  VAS blurred vision: highly statistical significant improvement
  VAS burning/stinging: highly statistical significant improvement
  VAS foreign body sensation: highly statistical significant improvement
  VAS frequency of dryness: highly statistical significant improvement
  VAS itching: highly statistical significant improvement
  VAS sensitivity to light: highly statistical significant improvement
  VAS severity of dryness: highly statistical significant improvement
  VAS sticky feeling: highly statistical significant improvement
[3]; subpopulation with normal tear production, DED associated with MGD, 8 weeks
  VAS severity of dryness in patients with Schirmer I Test of greater or equal than 10 mm: significant change from baseline
[3]; significant also at 4 weeks, 8 weeks
  start of treatment effect relating to the VAS symptoms: 2 weeks
[4]; QID vs saline
  OSDI blurred vision: clear improvements
  OSDI eyes feeling gritty: clear improvements
  OSDI painful or sore eyes: clear improvements
  OSDI poor vision: clear improvements
  OSDI problems with driving at night: clear improvements
  OSDI problems with watching TV: clear improvements
  OSDI reading problems: clear improvements
  OSDI sensitivity to light: clear improvements
  OSDI uncomfortable in areas that are air conditions: clear improvements
  OSDI uncomfortable in areas with low humidity: clear improvements
  OSDI uncomfortable under windy conditions: clear improvements
[4]; QID, at the 4 and 8-week timepoint, higher data variability
  OSDI problems with working with a computer or bank machine (ATM): did not improve
[4]; QID, over the placebo group
  total OSDI score: highly statistical significant improvement
[4]; [6]
  start of treatment effect relating to the OSDI symptoms: 2 weeks
